In patent US5102877A, “1-azabicyclo[3.2.0]hept-2-ene-2-carboxylic acid compounds” (Fujisawa Pharmaceutical Co., Ltd., priority 1989, dated 1992):

Tested on: S. aureus 6
Assay: in vitro Antimicrobial Activity, two-fold agar-plate dilution method
Assay type: cell-based
Conditions: Staphylococcus aureus, heart infusion agar, 10^6 viable cells per ml, 37° C. for 20 hours, read-out: minimal inhibitory concentration (MIC)
Method: in vitro Antimicrobial Activity was determined by the two-fold agar-plate dilution method as described below.
One loopful of an overnight culture of a test strain in Trypticase-soy broth (10^6 viable cells per ml) was streaked on heart infusion agar (HI-agar) containing graded concentrations of the test compound, and the minimal inhibitory concentration (MIC) was expressed in terms of μg/ml after incubation at 37° C. for 20 hours.

Compound: C[C@@H](O)[C@H]1C(=O)N2C(C(=O)O)=C(C3CCN(C=N)C3)C[C@H]12 (stereo partly drawn) [Example 12, (5R,6S)-3-(1-formimidoylpyrrolidin-3-yl)-6-[(1R)-1-hydroxyethyl]-7-oxo-1-azabicyclo[3.2.0]hept-2-ene-2-carboxylic acid]
- MIC: ≤ 0.025 µg/mL
